Measured values taken from US20050197371A1, “Urea derivatives as PDGFR modulators” (Ambit Biosciences Corporation, priority 2003, published 2005).
pKd: −log10 of the molar value.

Molecular target: T1, PDGFRB(DKIN) (PDGFR-β) (Homo sapiens, UniProt P09619)
T1 construct: PDGFRB(DKIN)
Test: Phage-display competitive binding assay, PDGFRB(DKIN)
Settings: T7 phage displaying human PDGFR-β, DKIN construct; read-out: Binding Assay: PDGFRB(DKIN)
Procedure: The term “ND” represents non-determined values.
Briefly, T7 phage displaying human PDGFR-β were incubated with an affinity matrix coated with known PDGFR-β inhibitor in the presence of various concentrations of the soluble competitor molecules.

pKd	SMILES
> 7.00	CC(C)(C)c1cc(NC(=O)Nc2ccc(NC(=O)c3csc(-c4ccncc4)n3)cc2)no1 [Compound N16]
5.00 to 6.00	Cc1cc(NC(=O)Nc2ccc(OCc3ccccc3)cc2)n(-c2ccccc2)n1 [Compound H4]
6.00 to 7.00	CC(C)(C)c1cc(NC(=O)Nc2ccc(OCc3ccccc3-c3ccccc3)cc2)no1 [Compound G8]
5.00 to 6.00	CC(C)(C)c1cc(NC(=O)Nc2ccc(NC(=O)c3cccc(Br)c3)cc2)no1 [Compound N24]
< 5.00	CC(=O)NS(=O)(=O)c1ccc(NC(=O)Nc2cc(C(C)(C)C)on2)cc1 [Compound V4]
6.00 to 7.00	CC(C)(C)c1cc(NC(=O)Nc2ccc(NC(=O)c3nnsc3Sc3ccc(C(F)(F)F)cc3)cc2)no1 [Compound N179]
5.00 to 6.00	CC(C)(C)c1cc(NC(=O)Nc2ccc(NC(=O)c3nnsc3Oc3ccc(Cl)cc3)cc2)no1 [Compound N71]
> 7.00	Cc1ccccc1-c1noc(-c2ccc(NC(=O)Nc3cc(C(C)(C)C)on3)cc2)n1 [Compound P4]
5.00 to 6.00	COc1cc(NC(=O)CCC(=O)N2CCNC(=O)CC2)ccc1NC(=O)Nc1cc(C(C)(C)C)on1 [Compound N172]
< 5.00	Cn1nc(-c2ccccc2)c(C(=O)Nc2ccc(NC(=O)Nc3cc(C(C)(C)C)on3)cc2)c1Cl [Compound N11]
6.00 to 7.00	COc1cc(OC)nc(Nc2cccc(C(=O)Nc3ccc(NC(=O)Nc4cc(C(C)(C)C)on4)cc3)c2)n1 [Compound N49]
5.00 to 6.00	CC(C)(C)c1cc(NC(=O)Nc2ccc(NC(=O)c3cnc4ccccc4n3)cc2)no1 [Compound N149]
6.00 to 7.00	CC(C)(C)c1cc(NC(=O)Nc2ccc(NC(=O)C3CCCCC3)cc2)no1 [Compound N91]
< 5.00	CCN(CC)CCNC(=O)c1ccc(NC(=O)Nc2cc(C(C)(C)C)on2)cc1 [Compound N102]
> 7.00	Cc1cnc(C(=O)Nc2ccc(NC(=O)Nc3cc(C(C)(C)C)on3)cc2)cn1 [Compound O2]
6.00 to 7.00	CC(C)(C)c1cc(NC(=O)Nc2ccc(C(N)=O)cc2)no1 [Compound N86]
6.00 to 7.00	CC(C)(C)c1cc(NC(=O)Nc2ccc(NC(=O)c3cccc4c3OCCO4)cc2)no1 [Compound N111]
5.00 to 6.00	CC(C)c1nnsc1C(=O)Nc1ccc(NC(=O)Nc2cc(C(C)(C)C)on2)cc1 [Compound N182]
> 7.00	COc1ccc(NC(=O)Nc2cc(C(C)(C)C)no2)cc1 [Compound A30]
5.00 to 6.00	COc1cc(OC)nc(Oc2cccnc2C(=O)Nc2ccc(NC(=O)Nc3cc(C(C)(C)C)on3)cc2)n1 [Compound N56]
> 7.00	CC(C)(C)c1cc(NC(=O)Nc2ccc(NC(=O)c3cc4cc(Br)ccc4s3)cc2)no1 [Compound N17]
> 7.00	CC(C)(C)c1cc(NC(=O)Nc2ccc(N3C(=O)c4ccccc4C3=O)cc2)no1 [Compound A57]
< 5.00	CC(C)CCOC(=O)c1nnsc1NC(=O)Nc1ccc(Br)cc1 [Compound Z36]
> 7.00	Cc1ccc(C(=O)Nc2ccc(NC(=O)Nc3cc(C(C)(C)C)on3)cc2)cc1 [Compound N92]
< 5.00	Cn1nc(C(F)(F)F)c2cc(C(=O)Nc3ccc(NC(=O)Nc4cc(C(C)(C)C)on4)cc3)sc21 [Compound N64]
6.00 to 7.00	CC(C)(C)c1cc(NC(=O)Nc2ccc(NC(=O)c3ncccc3C(N)=O)cc2)n[nH]1 [Compound N6]
6.00 to 7.00	CC(C)(C)c1cc(N2CCCN(c3ccc(OCc4ccccc4)cc3)C2=O)on1 [Compound E2]

pKd	SMILES
6.00 to 7.00	C[C@H](NC(=O)c1ccc(NC(=O)Nc2cc(C(C)(C)C)on2)cc1)c1ccccc1 [Compound N88]
< 5.00	Cc1c(NC(=O)Nc2cc(C(C)(C)C)on2)c(=O)n(-c2ccccc2)n1C [Compound Z45]
6.00 to 7.00	CC(C)(C)c1cc(NC(=O)Nc2ccc(NC(=O)c3cc(Cl)nnc3Cl)cc2)no1 [Compound N174]
< 5.00	Cc1ccc(-n2nc(C(C)(C)C)cc2NC(=O)Nc2ccc(C(C)C)cc2)cc1 [Compound D1, 1-(3-tert-butyl-1-p-tolyl-1H-pyrazol-5-yl)-3-(4-isopropylphenyl)urea]
6.00 to 7.00	Cc1nnsc1C(=O)Nc1ccc(NC(=O)Nc2cc(C(C)(C)C)on2)cc1 [Compound N18]
> 7.00	CC(C)(C)c1cc(NC(=O)Nc2ccc(OCc3ccc(C(F)(F)F)cc3)cc2)no1 [Compound G6]
> 7.00	CCOc1ccc(NC(=O)Nc2cc(C(C)(C)C)on2)cc1 [Compound G20]
> 7.00	Cc1ccc(COc2ccc(NC(=O)Nc3cc(C(C)(C)C)on3)cc2)cc1 [Compound G15]
> 7.00	O=C(Nc1ccc(Cl)cc1)Nc1ccc(-n2nc(Br)c(Br)c2Br)cc1 [Compound Z49]
6.00 to 7.00	CC(C)(C)c1cc(NC(=O)Nc2ccc(NC(=O)c3ccc(-n4cc(-c5ccncn5)cn4)cc3)cc2)no1 [Compound N76]
6.00 to 7.00	Cc1nc(C(=O)Nc2ccc(NC(=O)Nc3cc(C(C)(C)C)on3)cc2)nn1-c1cc(Cl)cc(Cl)c1 [Compound N15]
6.00 to 7.00	CC(C)(C)OC(=O)Nc1ccc(NC(=O)Nc2cc(C(C)(C)C)on2)cc1 [Compound N101]
< 5.00	O=C(Nc1ccc(Cl)cc1)Nc1cc(C(F)(F)F)cc(Cl)n1 [Compound Z76]
6.00 to 7.00	CC(C)(C)c1cc(NC(=O)Nc2ccc(NC(=O)c3cc4cc(Br)ccc4s3)cc2)no1 [Compound N126]
> 7.00	CC(C)(C)c1cc(NC(=O)Nc2ccc(NC(=O)c3ccccc3Cl)cc2)no1 [Compound N23]
> 7.00	CC(C)(C)c1cc(NC(=O)Nc2ccc(OCc3ccc(Cl)cc3)cc2)no1 [Compound G34]
6.00 to 7.00	CC(C)(C)c1cc(NC(=O)Nc2ccc(NC(=O)Cc3ccc(-c4ccccc4)cc3)cc2)no1 [Compound N38]
6.00 to 7.00	CC(=O)c1ccc(NC(=O)Nc2cc(C(C)(C)C)on2)cc1 [Compound A20]
5.00 to 6.00	COc1ccc(C(=O)c2c[nH]c(C(=O)Nc3ccc(NC(=O)Nc4cc(C(C)(C)C)on4)cc3)c2)cc1 [Compound N177]
> 7.00	CC(C)(C)c1cc(NC(=O)Nc2ccc(OCc3ccccc3Cl)cc2)no1 [Compound G10]
6.00 to 7.00	CC(C)(C)c1cc(NC(=O)Nc2ccc(NC(=O)CSCC(=O)Nc3ccccc3)cc2)no1 [Compound N72]
> 7.00	CC(C)(C)c1cc(NC(=O)Nc2ccc(NC(=O)c3cnc4ccccc4c3)cc2)no1 [Compound N108]
< 5.00	Cc1sc(NC(=O)Nc2ccc(Cl)cc2)c(C(N)=O)c1C [Compound Z58]
6.00 to 7.00	Cc1ccc(NC(=O)Nc2cc(C(F)(F)F)cc(Cl)n2)cc1 [Compound W1]
> 7.00	CC(C)(C)c1cc(NC(=O)Nc2ccc(NC(=O)c3ccncc3)cc2)no1 [Compound N167]
> 7.00	CC(C)(C)c1cc(NC(=O)Nc2ccc(OCc3ccccc3)cc2)on1 [Compound G30]
> 7.00	O=C(c1cc2ccccc2[nH]1)c1cc2cc(O)ccc2[nH]1

pKd	SMILES
5.00 to 6.00	CC(C)(C)c1cc(NC(=O)Nc2ccc(OCCN3CCOCC3)c3ccccc23)no1 [Compound A36]
6.00 to 7.00	CC(C)c1ccc(NC(=O)Nc2cc(C(C)(C)C)on2)cc1 [Compound A25]
5.00 to 6.00	CC(C)(C)c1cc(NC(=O)Nc2ccc(NC(=O)c3c(F)cccc3F)cc2)no1 [Compound N37]
> 7.00	COC(=O)c1ccc(C(=O)Nc2ccc(NC(=O)Nc3cc(C(C)(C)C)on3)cc2)nc1 [Compound N113]
6.00 to 7.00	CSc1ccc(NC(=O)Nc2cc(C(C)(C)C)on2)cc1 [Compound A37]
6.00 to 7.00	CC(C)(C)c1cc(NC(=O)Nc2ccc(Cl)cc2)no1 [Compound A27]
6.00 to 7.00	Cn1nc(C(C)(C)C)cc1NC(=O)Nc1ccc(OCc2ccccc2)cc1 [Compound H2]
> 7.00	COc1cc(C(=O)Nc2ccc(NC(=O)Nc3cc(C(C)(C)C)on3)cc2)nc(OC)n1 [Compound N162]
> 7.00	CC(C)(C)c1cc(NC(=O)Nc2ccc(OCc3ccc(OC(F)(F)F)cc3)cc2)no1 [Compound G5]
> 7.00	Cc1ccc(-c2nc(C(=O)Nc3ccc(NC(=O)Nc4cc(C(C)(C)C)on4)cc3)cs2)cc1 [Compound N178]
6.00 to 7.00	CC(C)(C)c1cc(NC(=O)Nc2ccc(OCc3c(Cl)cccc3Cl)cc2)no1 [Compound G19]
> 7.00	COc1ccc(N(C)C(=O)Nc2cc(C(C)(C)C)on2)cc1 [Compound J10]
> 7.00	CC(C)(C)c1cc(NC(=O)Nc2ccc(NC(=O)c3nccc4ccccc34)cc2)no1 [Compound N117]
6.00 to 7.00	COc1cc(OC)nc(Oc2ccccc2C(=O)Nc2ccc(NC(=O)Nc3cc(C(C)(C)C)on3)cc2)n1 [Compound N47]
5.00 to 6.00	Cc1ccc(-n2nc(C(C)(C)C)cc2NC(=O)Nc2ccc(Br)cc2C(F)(F)F)cc1 [Compound H13]
< 5.00	CC(C)(C)c1cc(NC(=O)Nc2ccc(-c3nc(-c4ccc(C(F)(F)F)cc4)no3)cc2)no1 [Compound P8]
6.00 to 7.00	CC(C)(C)c1cc(NC(=O)Nc2ccc(C(=O)Nc3ccc(OCC4CCC4)cc3)cc2)no1 [Compound N100]
5.00 to 6.00	Cc1ccc(-n2nc(C(C)(C)C)cc2NC(=O)Nc2cc(C(C)(C)C)on2)cc1 [Compound H11]
> 7.00	CC(C)(C)c1cc(NC(=O)Nc2ccc(OCc3ccc(-c4ccccc4)cc3)cc2)no1 [Compound G56]
> 7.00	CC(C)(C)c1cc(NC(=O)Nc2ccc(NC(=O)c3cccc(F)n3)cc2)no1 [Compound N8]
6.00 to 7.00	CC(C)(C)c1cc(NC(=O)Nc2ccc(OCC(O)CO)cc2)no1 (centres unmarked) [Compound G28]
< 5.00	CC(C)(C)c1cc(NC(=O)Nc2ccc(C(=O)O)cc2)no1 [Compound C2]
6.00 to 7.00	CC(C)(C)c1cc(NC(=O)Nc2ccc(OC(F)F)cc2)no1 [Compound A12]
< 5.00	CC(C)(C)c1cc(N2CCCN(c3ccc(OCc4ccccc4)cc3)C2=O)no1 [Compound E3]
5.00 to 6.00	CC(C)(C)c1cc(NC(=O)Nc2ccc(NC(=O)CC(N)c3ccccc3Cl)cc2)no1 (centres unmarked) [Compound N44]
> 7.00	CC(C)(C)c1cc(NC(=O)Nc2ccc(NC(=O)c3cnnc4ccccc34)cc2)no1 [Compound N147]
